Data as given in ChEMBL document CHEMBL1126188, “Synthesis and anti-HIV activity of 4'-thio-2',3'-dideoxynucleosides” (J Med Chem, 1992).
In brackets after ≈: the same amount, converted by molar mass.

Key:
[1] = tested on: CCRF-CEM; experiment: Minimum compound concentration that reduced cell viability by 25% for HIV replication in CEM cells.; assay type: functional, Homo sapiens
[2] = tested on: CCRF-CEM; experiment: Compound was tested for its inhibitory activity against HIV replication in CEM cells.; assay type: functional, cell-based; details: Homo sapiens
[3] = tested on: CCRF-CEM; experiment: Total viral index (TAI) is the area between the cytotoxicity and the antiviral activity curve for CEM cells.; assay type: functional, Homo sapiens
[4] = tested on: MT2; experiment: Compound was tested for its inhibitory activity against HIV replication in MT-2 cells.; assay type: functional, cell-based; details: Homo sapiens
[5] = tested on: MT2; experiment: Total viral index (TAI) is the area between the cytotoxicity and the antiviral activity curve for MT-2 cell line.; assay type: functional, Homo sapiens
[6] = tested on: MT2; experiment: Minimum compound concentration that reduced cell viability by 25% for HIV replication in MT-2 cells.; assay type: functional, Homo sapiens
[7] = Selectivity index is calculated by dividing the TC25(CEM) by ID50(CEM); assay type: functional
[8] = Selectivity index is calculated by dividing the TC25(MT2) by ID50(MT2); assay type: functional
[9] = tested on: CCRF-CEM; experiment: Total viral index (TAI) is the area between the cytotoxicity and the antiviral activity curve for CEM cell line.; assay type: functional, Homo sapiens
[10] = tested on: MT2; experiment: Total viral index (TAI) is the area between the cytotoxicity and the antiviral activity curve for MT-2 cells.; assay type: functional, Homo sapiens
[11] = tested on: CCRF-CEM; experiment: Compound was tested for its inhibitory activity against HIV replication in CEM cells.; details: Homo sapiens
[12] = tested on: CCRF-CEM; experiment: Minimum compound concentration that reduced cell viability by 25% for HIV replication in CEM cells.
[13] = tested on: CCRF-CEM; experiment: Total viral index (TAI) is the area between the cytotoxicity and the antiviral activity curve for CEM cells.

SMILES	TC25 [1]	IC50 [2]	TAI [3]	IC50 [4]	TAI [5]	TC25 [6]	Selectivity index [7]	Selectivity index [8]	TAI [9]	TAI [10]	IC50 [11]	TC25 [12]	TAI [13]
Cc1cn([C@H]2C[C@H](N=[N+]=[N-])[C@@H](CO)O2)c(=O)[nH]c1=O [ZIDOVUDINE]	>10 µg/mL	< 0.03 µg/mL	>93	0.14 µg/mL (≈ 0.524 µM)	>82	9.3 µg/mL (≈ 34.8 µM)	> 300	> 160	–	–	–	–	–
Nc1nc(O)c2ncn(C3CC[C@@H](CO)S3)c2n1 (some centres not stated)	>100 µg/mL	–	–	98 µg/mL (≈ 367 µM)	11	>200 µg/mL	–	1.6	–	–	–	–	–
Nc1ccn(C2CC[C@@H](CO)S2)c(=O)n1 (some centres not stated)	>100 µg/mL	1 µg/mL (≈ 4.4 µM)	–	38 µg/mL (≈ 167 µM)	–	>100 µg/mL	> 100	> 100	>65	>23	–	–	–
Nc1ccn([C@H]2CC[C@@H](CO)O2)c(=O)n1 [ZALCITABINE]	5.3 µg/mL (≈ 25.1 µM)	0.05 µg/mL (≈ 0.237 µM)	>63	0.44 µg/mL (≈ 2.08 µM)	>52	>9.8 µg/mL	120	> 25	–	–	–	–	–
Nc1ncnc2c1ncn2C1CC[C@@H](CO)S1 (some centres not stated)	–	–	–	80 µg/mL (≈ 318 µM)	>10	>100 µg/mL	–	1.3	–	–	–	–	–
Nc1nc(N)c2ncn(C3CC[C@@H](CO)S3)c2n1 (some centres not stated)	–	–	–	–	–	–	2.6	–	–	–	37 µg/mL (≈ 139 µM)	97 µg/mL (≈ 364 µM)	21
